# Tests used:
# Settings in all cases: incubation time: 72 h
# [1] = system: CAL-120; assay: drug sensitivity score (DSS), CellTiter-Glo (DSS (AUC-based score)); higher = stronger drug effect (viability inhibition or cytotoxicity); extreme values may be limits of the assay
# Method in brief: (§1)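 A drug sensitivity score was derived from the area under each fitted dose-response curve. Breast cancer cells (20 µl suspension) were seeded onto compound in 384-well plates, using 5 concentrations 10-fold apart over a compound-specific 10,000-fold range, and incubated 72 h. Readouts were CellTox Green fluorescence and then CellTiter-Glo luminescence, with every plate normalised to 0.1 % DMSO and a positive kill control.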
# [2] = system: CAL-51; assay: as above
# Method in brief: as §1
# [3] = system: DU-4475; assay: as above
# Method in brief: as §1
# [4] = system: HCC1143; assay: as above
# Method in brief: as §1
# [5] = system: HCC1599; assay: as above
# Method in brief: as §1
# [6] = system: HCC1937; assay: as above
# Method in brief: as §1
# [7] = system: Hs578T; assay: as above
# Method in brief: as §1
# [8] = system: MDA-MB-231; assay: as above
# Method in brief: as §1
# [9] = system: MDA-MB-436; assay: as above
# Method in brief: as §1
# [10] = system: MDA-MB-453; assay: as above
# Method in brief: as §1
# [11] = system: MFM-223; assay: as above
# Method in brief: as §1
# [12] = system: BT-474; assay: drug sensitivity score (DSS), CellTox Green (DSS (AUC-based score)); higher = stronger drug effect (viability inhibition or cytotoxicity); extreme values may be limits of the assay
# Method in brief: as §1
# [13] = system: BT-549; assay: as above
# Method in brief: as §1
# [14] = system: CAL-120; assay: as above
# Method in brief: as §1
# [15] = system: CAL-148; assay: as above
# Method in brief: as §1
# [16] = system: CAL-51; assay: as above
# Method in brief: as §1
# [17] = system: DU-4475; assay: as above
# Method in brief: as §1
# [18] = system: HCC1143; assay: as above
# Method in brief: as §1
# [19] = system: HCC1599; assay: as above
# Method in brief: as §1
# [20] = system: HCC1937; assay: as above
# Method in brief: as §1
# [21] = system: HDQ-P1; assay: as above
# Method in brief: as §1
# [22] = system: Hs578T; assay: as above
# Method in brief: as §1
# [23] = system: MCF-10A; assay: as above
# Method in brief: as §1
# [24] = system: MDA-MB-231; assay: as above
# Method in brief: as §1
# [25] = system: MDA-MB-436; assay: as above
# Method in brief: as §1
# [26] = system: MDA-MB-453; assay: as above
# Method in brief: as §1
# [27] = system: MFM-223; assay: as above
# Method in brief: as §1
SMILES,drug sensitivity score [1],drug sensitivity score [2],drug sensitivity score [3],drug sensitivity score [4],drug sensitivity score [5],drug sensitivity score [6],drug sensitivity score [7],drug sensitivity score [8],drug sensitivity score [9],drug sensitivity score [10],drug sensitivity score [11],drug sensitivity score [12],drug sensitivity score [13],drug sensitivity score [14],drug sensitivity score [15],drug sensitivity score [16],drug sensitivity score [17],drug sensitivity score [18],drug sensitivity score [19],drug sensitivity score [20],drug sensitivity score [21],drug sensitivity score [22],drug sensitivity score [23],drug sensitivity score [24],drug sensitivity score [25],drug sensitivity score [26],drug sensitivity score [27]
Cn1cncc1[C@@](N)(c1ccc(Cl)cc1)c1ccc2c(c1)c(-c1cccc(Cl)c1)cc(=O)n2C [Tipifarnib],3.76,11.4,8.37,0,1.29,6.28,4.5,0,10.2,10.3,6.28,0,0,0,0,10.3,0,0,0,0,0,0,0,0,0,0,0
CCCCCCCCc1ccc(CCC(N)(CO)CO)cc1 [Fingolimod],0,4.51,0,0,0.954,4.54,0,6.21,3.56,5.2,1.45,5.23,1.17,0.861,0,1.3,0,0,0,17.9,2.47,1.46,11.1,6.51,2.64,1.86,0.724
COc1ccccc1S(=O)(=O)Nc1ccc2c(c1)CN(C)C(=O)N2 [PFI-1],2.01,3.76,0.973,0,0,0,4.98,1.83,1.33,4.63,1.13,0,0,0,0,0,0,0,0,0,0,0,0,0,0,0,0
CN1CCN(CCOc2cc(OC3CCOCC3)c3c(Nc4c(Cl)ccc5c4OCO5)ncnc3c2)CC1 [Saracatinib],2.85,5.08,0,2.8,2.67,3.31,2.32,8.36,0.426,3.51,0,1.96,0,0,0,6.5,0,0,0,0,2.22,0,0,0,9.13,0,0
COc1ccc(-c2ccc3c(N4CCOC[C@@H]4C)nc(N4CCOC[C@@H]4C)nc3n2)cc1CO [AZD8055],23.8,23.4,16.5,20.2,5.62,14.9,20.2,16.8,18.9,22.2,23.8,2.99,0,0,14.2,7.39,0,8.37,0,0,0,0,0,0,0,0,0
Nc1ncnc2c1c(COc1cccc(Cl)c1)nn2C1CCOCC1,0,0,0,0,0,0,0,0,0,0,0,0,0,0,0,0,0,0,0,0,0,0.27,0,0,0,0,0
CN(C)C[C@@H]1CCn2cc(c3ccccc32)C2=C(C(=O)NC2=O)c2cn(c3ccccc23)CCO1 [Ruboxistaurin],0,6.02,3.25,3,0,3.65,0,6.63,6.47,6.05,4.27,17.2,2.34,0.954,10.6,9.21,0,0,0,1.71,2.84,–,0,7.98,5.62,4.68,0
O=C1NC(=O)[C@@H](c2cn3c4c(cccc24)CCC3)[C@@H]1c1c[nH]c2ccccc12 [Tivantinib],0.91,1.38,0.839,2.06,0.956,0,3.41,1.39,2.69,4.48,0,0,0,1.28,7.13,2.14,0,0,0,0,0,5.63,0,3.62,0,0,0
C/C(=C\c1csc(C)n1)[C@@H]1C[C@@H]2O[C@]2(C)CCC[C@H](C)[C@H](O)[C@@H](C)C(=O)C(C)(C)[C@@H](O)CC(=O)O1 [Patupilone],5.48,19.1,6.14,13.5,2.26,0.309,12.7,6.83,15,5.87,3.26,8.09,0,2.68,8.8,21,0,0.908,0,0,0,7.9,7.87,9.94,10.2,0,3
CC[C@]1(O)C[C@H]2CN(CCc3c([nH]c4ccccc34)[C@@](C(=O)OC)(c3cc4c(cc3OC)N(C=O)[C@H]3[C@@](O)(C(=O)OC)[C@H](OC(C)=O)[C@]5(CC)C=CCN6CC[C@]43[C@@H]65)C2)C1 [Vincristine],11.1,11.7,6.4,13.6,20,7.53,16.6,11.5,17.1,10.5,11.6,6.14,9.25,1.68,0,14.1,0,0,2.79,0,0,8.32,14.2,15.7,0,0,12.5
C[C@]12CC[C@H](O)CC1=CC[C@@H]1[C@@H]2CC[C@]2(C)C(c3cccnc3)=CC[C@@H]12 [Abiraterone],0,3.91,0,0,0,0,0,0,0,0,0,0,0,0,0,0,0,0,0,0,0,0,0,0,0,0,0
CC(C)(C#N)c1cc(Cn2cncn2)cc(C(C)(C)C#N)c1 [Anastrozole],0,0,0,0,0,0,0,0,0,0,0,0,0,0,0,0,0,–,0,0,0,–,0,0,0,0.209,0
CNNCc1ccc(C(=O)NC(C)C)cc1 [Procarbazine],0,0,0,0,0,0,0,0,0,0,0,0,0,0,0,0,0,0,0,1.67,0,0,0,0,0,–,0

# — the supplement of paper PMC4862054
